Reference: PubChem BioAssay (NCI)
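Compound exposure: 48 hours, 5 concentrations, 96-well plates. TGI: total growth inhibition.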 *1 amine or outer side, *2 acyl side, *3 side chain or, on linkers, in order; H or OH if unused. Where a SMILES comes first, the peptide text is derived from it. Bridges are numbered along the chain shown (N, C = ends). Roman numbers before positions name the chains, in order. [ ]: non-standard residue; d: D form. Actinocin(9to1) = Cc1c2oc3c(C)ccc(C(=O)[*:1])c3nc-2c(C(=O)[*:2])c(N)c1=O; NMeV = CN[CH](C(=O)O)C(C)C; Sar = CNCC(=O)O

Columns and labels:
Assay in all cases: NCI tumour cell line growth inhibition, 48 h
SK-MEL-28 melanoma = tested on: SK-MEL-28 melanoma
MDA-MB-231 breast = tested on: MDA-MB-231 breast
HCC-2998 colon = tested on: HCC-2998 colon
MCF7 breast = tested on: MCF7 breast
U251 CNS = tested on: U251 CNS
OVCAR-4 ovarian = tested on: OVCAR-4 ovarian
NCI-H23 lung = tested on: NCI-H23 lung
MDA-MB-435 = tested on: MDA-MB-435
ACHN renal = tested on: ACHN renal
SK-MEL-2 melanoma = tested on: SK-MEL-2 melanoma

Cc1ccc(Nc2nc(NNC(=O)Cc3ccccc3)nc(NNC(=O)c3ccncc3)n2)cc1
TGI (SK-MEL-28 melanoma): > 10 µM
TGI (MDA-MB-231 breast): > 10 µM
TGI (HCC-2998 colon): > 10 µM
TGI (MCF7 breast): > 10 µM
TGI (U251 CNS): > 10 µM
TGI (OVCAR-4 ovarian): > 10 µM
TGI (NCI-H23 lung): > 10 µM

COc1cc(S(=O)(=O)Nc2ccc(-c3csc(N4C(=O)CSC4c4cccc(Oc5ccccc5)c4)n3)cc2)ccc1Cl (centres undefined)
TGI (SK-MEL-28 melanoma): 87.7 µM
TGI (MDA-MB-435): > 100 µM
TGI (MCF7 breast): 51.7 µM
TGI (OVCAR-4 ovarian): > 100 µM
TGI (ACHN renal): > 100 µM
TGI (NCI-H23 lung): > 100 µM

O=C(Nc1c(O)[nH]c(=S)[nH]c1=O)c1ccccc1
TGI (SK-MEL-28 melanoma): > 100 µM
TGI (U251 CNS): > 100 µM
TGI (SK-MEL-2 melanoma): > 100 µM
TGI (OVCAR-4 ovarian): > 100 µM
TGI (ACHN renal): > 100 µM
TGI (NCI-H23 lung): > 100 µM

O=c1cc(-c2ccc3c(c2)OCO3)[nH]c2cc3c(cc12)OCO3
TGI (SK-MEL-28 melanoma): > 100 µM
TGI (HCC-2998 colon): > 100 µM
TGI (U251 CNS): 99 µM
TGI (SK-MEL-2 melanoma): > 100 µM
TGI (OVCAR-4 ovarian): > 100 µM
TGI (ACHN renal): > 100 µM
TGI (NCI-H23 lung): > 100 µM

N#Cc1cccc(-n2[nH]c(=O)ccc2=O)c1
TGI (SK-MEL-28 melanoma): > 100 µM
TGI (HCC-2998 colon): > 100 µM
TGI (U251 CNS): > 100 µM
TGI (SK-MEL-2 melanoma): > 100 µM
TGI (OVCAR-4 ovarian): > 100 µM
TGI (ACHN renal): > 100 µM
TGI (NCI-H23 lung): > 100 µM

CC(C)=C[C@H]1C[C@H](C)[C@H]2CC[C@H](C)c3c2c1c(C)c1ncoc31
TGI (SK-MEL-28 melanoma): 37 µM
TGI (MDA-MB-435): 38.9 µM
TGI (MDA-MB-231 breast): 39.3 µM
TGI (HCC-2998 colon): 35.8 µM
TGI (MCF7 breast): 30.5 µM
TGI (U251 CNS): 34 µM
TGI (SK-MEL-2 melanoma): 31.1 µM
TGI (OVCAR-4 ovarian): 34.1 µM
TGI (ACHN renal): 32.7 µM

Cc1c2oc3c(C)ccc(C(=O)NC4C(=O)NC(C(C)C)C(=O)N5CCCC5C(=O)N(C)CC(=O)N(C)C(C(C)C)C(=O)OC4C)c3nc-2c(C(=O)NC2C(=O)NC(C(C)C)C(=O)N3CCCC3C(=O)N(C)CC(=O)N(C)C(C(C)C)C(=O)OC2C)c(N)c1=O (centres undefined) (I: TVP[Sar][NMeV] / II: TVP[Sar][NMeV]; ester I:1-I:C, II:1-II:C; linker I:N-II:N via Actinocin(9to1); configuration not given here)
TGI (SK-MEL-28 melanoma): 0.0125 µM
TGI (MDA-MB-435): 0.0125 µM
TGI (MDA-MB-231 breast): > 0.231 µM
TGI (HCC-2998 colon): 0.0272 µM
TGI (MCF7 breast): 0.00342 µM
TGI (SK-MEL-2 melanoma): 0.00295 µM
TGI (OVCAR-4 ovarian): 0.00187 µM
TGI (NCI-H23 lung): 0.00481 µM

CC(=O)OCCOCNC(=S)N/N=C/c1ccc([N+](=O)[O-])o1
TGI (SK-MEL-28 melanoma): > 100 µM
TGI (HCC-2998 colon): > 100 µM
TGI (U251 CNS): > 100 µM
TGI (SK-MEL-2 melanoma): > 100 µM
TGI (OVCAR-4 ovarian): > 100 µM
TGI (ACHN renal): > 100 µM
TGI (NCI-H23 lung): > 100 µM

COc1cc(C2C(Cl)C(=O)N2n2cnc3ccccc3c2=O)ccc1O (centres undefined)
TGI (SK-MEL-28 melanoma): > 100 µM
TGI (HCC-2998 colon): > 100 µM
TGI (U251 CNS): > 100 µM
TGI (SK-MEL-2 melanoma): > 100 µM
TGI (OVCAR-4 ovarian): > 100 µM
TGI (ACHN renal): > 100 µM
TGI (NCI-H23 lung): > 100 µM

O=C1c2ccccc2-n2nnnc2C2CSCN12 (centres undefined)
TGI (SK-MEL-28 melanoma): > 100 µM
TGI (MDA-MB-435): > 100 µM
TGI (MDA-MB-231 breast): > 100 µM
TGI (HCC-2998 colon): > 100 µM
TGI (MCF7 breast): > 100 µM
TGI (U251 CNS): > 100 µM
TGI (SK-MEL-2 melanoma): > 100 µM
TGI (OVCAR-4 ovarian): > 100 µM
TGI (ACHN renal): > 100 µM

Cc1ccc(S(=O)(=O)N2CC2CCCCC=O)cc1 (centres undefined)
TGI (SK-MEL-28 melanoma): > 100 µM
TGI (MDA-MB-435): > 100 µM
TGI (MDA-MB-231 breast): > 100 µM
TGI (U251 CNS): > 100 µM
TGI (SK-MEL-2 melanoma): > 100 µM
TGI (OVCAR-4 ovarian): > 100 µM
TGI (ACHN renal): > 100 µM
TGI (NCI-H23 lung): > 100 µM

C=C1C(=O)O[C@@H]2/C=C(C)/C=C\[C@@H]3O[C@@]3(C)C[C@@H](O)C12 (some centres undefined)
TGI (SK-MEL-28 melanoma): 35.8 µM
TGI (MDA-MB-435): 39.6 µM
TGI (HCC-2998 colon): 33.1 µM
TGI (MCF7 breast): 26.4 µM
TGI (U251 CNS): 34.6 µM
TGI (SK-MEL-2 melanoma): > 100 µM
TGI (OVCAR-4 ovarian): 38.2 µM
TGI (ACHN renal): 18.3 µM
TGI (NCI-H23 lung): 33.3 µM

CCOC(=O)c1ccc(-c2cc(C)no2)[nH]1
TGI (SK-MEL-28 melanoma): > 100 µM
TGI (MDA-MB-435): 29.3 µM
TGI (MDA-MB-231 breast): > 100 µM
TGI (U251 CNS): > 100 µM
TGI (SK-MEL-2 melanoma): > 100 µM
TGI (OVCAR-4 ovarian): > 100 µM
TGI (ACHN renal): > 100 µM
TGI (NCI-H23 lung): > 100 µM

COC(=O)c1ccc(Cc2cc(Cc3ccc(C(=O)OC)cc3)cc(Cc3ccc(C(=O)OC)cc3)c2)cc1
TGI (SK-MEL-28 melanoma): > 25 µM
TGI (MDA-MB-435): > 25 µM
TGI (MDA-MB-231 breast): > 25 µM
TGI (HCC-2998 colon): > 25 µM
TGI (MCF7 breast): > 25 µM
TGI (U251 CNS): > 25 µM
TGI (SK-MEL-2 melanoma): > 25 µM
TGI (OVCAR-4 ovarian): > 25 µM
TGI (ACHN renal): > 25 µM

CCn1cnc2c(=S)nc(N)[nH]c21
TGI (SK-MEL-28 melanoma): > 100 µM
TGI (HCC-2998 colon): > 100 µM
TGI (U251 CNS): > 100 µM
TGI (ACHN renal): > 100 µM
TGI (NCI-H23 lung): > 100 µM

CCOC(=O)/C(=C/c1ccc(OC)cc1)N(CC)CC
TGI (SK-MEL-28 melanoma): > 100 µM
TGI (HCC-2998 colon): > 100 µM
TGI (U251 CNS): > 100 µM
TGI (SK-MEL-2 melanoma): > 100 µM
TGI (OVCAR-4 ovarian): > 100 µM
TGI (ACHN renal): > 100 µM
TGI (NCI-H23 lung): > 100 µM

C(=C/CCCN1O[C@@H](CCCCCCCCc2cccnc2)[C@H]2CCC[C@H]21)/CCCCCCCCCc1cccnc1
TGI (SK-MEL-28 melanoma): 48.7 µM
TGI (MDA-MB-435): 38 µM
TGI (MDA-MB-231 breast): 36.9 µM
TGI (MCF7 breast): 31.6 µM
TGI (U251 CNS): 34.5 µM
TGI (SK-MEL-2 melanoma): 52.4 µM
TGI (OVCAR-4 ovarian): > 100 µM
TGI (NCI-H23 lung): 61.7 µM

COc1ccc(C2Oc3cc(OC)c(OC)cc3C2CCl)cc1OC (centres undefined)
TGI (SK-MEL-28 melanoma): > 100 µM
TGI (HCC-2998 colon): > 100 µM
TGI (U251 CNS): > 100 µM
TGI (SK-MEL-2 melanoma): > 100 µM
TGI (OVCAR-4 ovarian): > 100 µM
TGI (ACHN renal): > 100 µM

CCNC(=O)c1ccc(C)c(N=NN(C)C)c1
TGI (SK-MEL-28 melanoma): > 100 µM
TGI (HCC-2998 colon): > 100 µM
TGI (U251 CNS): > 100 µM
TGI (SK-MEL-2 melanoma): > 100 µM
TGI (OVCAR-4 ovarian): > 100 µM
TGI (ACHN renal): > 100 µM
TGI (NCI-H23 lung): > 100 µM

COc1ccc(S(=O)(=O)n2c3c(c4ccccc42)[C@@H]2[C@@H](CCCN2C(=O)CS(=O)c2ccc(C)cc2)[C@H](Cl)C3)cc1 (some centres undefined)
TGI (SK-MEL-28 melanoma): > 100 µM
TGI (MDA-MB-435): > 100 µM
TGI (MDA-MB-231 breast): > 100 µM
TGI (HCC-2998 colon): > 100 µM
TGI (MCF7 breast): > 100 µM
TGI (U251 CNS): > 100 µM
TGI (SK-MEL-2 melanoma): > 100 µM
TGI (NCI-H23 lung): > 100 µM

O=C1/C(=C/c2ccco2)NC(=S)N1CN1CCCCC1
TGI (SK-MEL-28 melanoma): > 100 µM
TGI (MDA-MB-435): > 100 µM
TGI (MDA-MB-231 breast): > 100 µM
TGI (MCF7 breast): > 100 µM
TGI (U251 CNS): > 100 µM
TGI (SK-MEL-2 melanoma): > 100 µM
TGI (OVCAR-4 ovarian): 86 µM
TGI (ACHN renal): > 100 µM
TGI (NCI-H23 lung): > 100 µM

CCOC(=O)c1nnn(CCCCO)c1C(=O)OCC
TGI (SK-MEL-28 melanoma): > 100 µM
TGI (MDA-MB-435): > 100 µM
TGI (MDA-MB-231 breast): > 100 µM
TGI (HCC-2998 colon): > 100 µM
TGI (MCF7 breast): > 100 µM
TGI (U251 CNS): > 100 µM
TGI (SK-MEL-2 melanoma): > 100 µM
TGI (OVCAR-4 ovarian): > 100 µM
TGI (NCI-H23 lung): > 100 µM

O=S(=O)(O)c1cc(N=Nc2c(O)ccc3ccccc23)cc2c(S(=O)(=O)O)cccc12
TGI (SK-MEL-28 melanoma): > 100 µM
TGI (MDA-MB-435): > 100 µM
TGI (MDA-MB-231 breast): > 100 µM
TGI (HCC-2998 colon): > 100 µM
TGI (MCF7 breast): > 100 µM
TGI (U251 CNS): > 100 µM
TGI (SK-MEL-2 melanoma): > 100 µM
TGI (OVCAR-4 ovarian): > 100 µM
TGI (ACHN renal): > 100 µM

COC(=O)c1cccc(C)c1C1CN=NC12Cc1cc(C)cc(C)c1C2=O (centres undefined)
TGI (SK-MEL-28 melanoma): > 100 µM
TGI (MDA-MB-435): 66.1 µM
TGI (MDA-MB-231 breast): 77.6 µM
TGI (HCC-2998 colon): 76.7 µM
TGI (MCF7 breast): > 100 µM
TGI (U251 CNS): > 100 µM
TGI (OVCAR-4 ovarian): > 100 µM
TGI (ACHN renal): > 100 µM
TGI (NCI-H23 lung): > 100 µM
